According to ChEMBL document CHEMBL3603818, “Hedgehog inhibitors from Withania somnifera” (Bioorg Med Chem Lett, 2015):
Active and inactive are the calls of the source. No cut-off for these calls is given here.

Columns and labels:
[1] = Inhibition of hedgehog/GLI1-mediated transcriptional activity in human HaCaT cells after 12 hrs by luciferase assay; assay type: cell-based
[2] = Cytotoxicity against human PANC1 cells after 24 hrs by FMCA; assay type: functional, cell-based; conditions: PANC-1, 24 h
[3] = system: DU-145; experiment: Cytotoxicity against human DU145 cells after 24 hrs by FMCA; assay type: functional, cell-based; conditions: DU-145, 24 h
[4] = system: MCF7; experiment: Cytotoxicity against human MCF7 cells after 24 hrs by FMCA; assay type: functional, cell-based; conditions: MCF7, 24 h
[5] = Cytotoxicity against mouse C3H10T1/2 cells after 24 hrs by FMCA; assay type: cell-based; conditions: C3H 10T1/2, 24 h
[6] = molecular target: T1, Zinc finger protein GLI1 (Homo sapiens) (UniProt P08151); experiment: Inhibition of GST-GLI1 (unknown origin) interaction with DNA assessed as reduction of protein-DNA complex level at 100 uM after 20 mins by electrophoretic mobility shift assay
T1 sequence (whole entry): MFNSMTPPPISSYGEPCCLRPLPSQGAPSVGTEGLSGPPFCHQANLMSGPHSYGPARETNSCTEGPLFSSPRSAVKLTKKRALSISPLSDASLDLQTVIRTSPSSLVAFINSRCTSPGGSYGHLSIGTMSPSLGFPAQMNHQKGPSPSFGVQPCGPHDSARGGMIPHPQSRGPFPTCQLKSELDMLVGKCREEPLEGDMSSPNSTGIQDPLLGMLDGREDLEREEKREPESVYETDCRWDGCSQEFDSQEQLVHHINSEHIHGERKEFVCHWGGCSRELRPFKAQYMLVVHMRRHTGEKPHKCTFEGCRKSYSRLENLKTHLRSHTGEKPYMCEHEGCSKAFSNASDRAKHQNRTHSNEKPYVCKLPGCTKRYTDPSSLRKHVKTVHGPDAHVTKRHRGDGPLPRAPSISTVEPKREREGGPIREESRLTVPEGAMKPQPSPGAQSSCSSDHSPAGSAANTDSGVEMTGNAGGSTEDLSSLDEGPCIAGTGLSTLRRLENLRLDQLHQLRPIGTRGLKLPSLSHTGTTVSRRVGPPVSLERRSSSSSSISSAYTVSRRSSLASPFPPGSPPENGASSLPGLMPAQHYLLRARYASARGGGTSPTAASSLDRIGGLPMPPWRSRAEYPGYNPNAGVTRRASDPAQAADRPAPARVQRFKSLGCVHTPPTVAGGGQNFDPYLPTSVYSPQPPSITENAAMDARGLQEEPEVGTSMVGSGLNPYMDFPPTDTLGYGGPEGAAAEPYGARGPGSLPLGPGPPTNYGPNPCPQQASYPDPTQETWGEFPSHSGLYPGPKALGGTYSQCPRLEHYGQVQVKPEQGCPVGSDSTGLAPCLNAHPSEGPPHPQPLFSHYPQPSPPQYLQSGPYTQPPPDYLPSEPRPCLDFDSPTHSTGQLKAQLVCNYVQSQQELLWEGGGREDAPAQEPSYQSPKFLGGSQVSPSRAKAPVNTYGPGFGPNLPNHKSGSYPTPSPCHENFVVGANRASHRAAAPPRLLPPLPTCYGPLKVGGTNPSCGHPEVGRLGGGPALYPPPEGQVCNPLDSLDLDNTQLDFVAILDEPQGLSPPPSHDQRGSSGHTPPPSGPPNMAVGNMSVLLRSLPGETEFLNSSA

[7] = system: HaCaT; experiment: Inhibition of PTCH expression in human HaCaT cells expressing GLI1 at 1.5 uM after 12 hrs by Western blotting; assay type: functional, cell-based
[8] = system: HaCaT; experiment: Inhibition of BCL-2 expression in human HaCaT cells expressing GLI1 at 1.5 uM after 12 hrs by Western blotting; assay type: functional, cell-based
[9] = system: PANC-1; experiment: Inhibition of PTCH expression in human PANC1 cells at 1 uM after 12 hrs by Western blotting; assay type: functional, cell-based
[10] = system: PANC-1; experiment: Inhibition of BCL-2 expression in human PANC1 cells at 1 uM after 12 hrs by Western blotting; assay type: functional, cell-based
[11] = system: PANC-1; experiment: Inhibition of PTCH expression in human PANC1 cells at 5 uM after 12 hrs by Western blotting; assay type: functional, cell-based
[12] = system: PANC-1; experiment: Inhibition of BCL-2 expression in human PANC1 cells at 5 uM after 12 hrs by Western blotting; assay type: functional, cell-based

Row | SMILES | IC50 [1] | IC50 [2] | IC50 [3] | IC50 [4] | IC50 [5] | inhibition [6] | inhibition [7] | inhibition [8] | inhibition [9] | inhibition [10] | inhibition [11] | inhibition [12]
1 | CO[C@H]1CC(=O)[C@]2(C)[C@H]3CC[C@]4(C)[C@@H]([C@H](C)[C@H]5CC(C)=C(CO)C(=O)O5)CC[C@H]4[C@@H]3C[C@H]3O[C@]32[C@H]1O | > 25 µM | > 25 µM | > 25 µM | > 25 µM | > 25 µM |  |  |  |  |  |  | 
2 | CC1=C(CO)C(=O)O[C@@H]([C@@H](C)[C@H]2CC[C@H]3[C@@H]4C[C@H]5O[C@]56[C@@H](O)CCC(=O)[C@]6(C)[C@H]4CC[C@]23C)C1 | 14.8 µM | > 25 µM | > 25 µM | > 25 µM | > 25 µM | Active |  |  |  |  |  | 
3 | CC1=C(CO)C(=O)O[C@@H]([C@@H](C)[C@H]2CC[C@H]3[C@@H]4CC=C5[C@@H](O)C=CC(=O)[C@]5(C)[C@H]4CC[C@]23C)C1 | 1.8 µM | 11.9 µM | 10.6 µM | 22.6 µM | > 25 µM |  |  |  |  |  |  | 
4 | CC1=C(CO)C(=O)O[C@@H]([C@@H](C)[C@H]2CC[C@H]3[C@@H]4C[C@H]5O[C@]56[C@@H](O)C=CC(=O)[C@]6(C)[C@H]4CC[C@]23C)C1 [WITHAFERIN A] | 0.5 µM | 1.6 µM | 2.5 µM | 6.3 µM | 4.9 µM | Active | Active | Active | Active | Active |  | 
5 | CC1=C(C)C(=O)O[C@@H]([C@@H](C)[C@H]2CC[C@H]3[C@@H]4C[C@H]5O[C@]56[C@@H](O)C=CC(=O)[C@]6(C)[C@H]4CC[C@]23C)C1 | 0.6 µM | 1.1 µM | 1.8 µM | 2.8 µM | 4.1 µM |  | Active | Active |  |  | Active | Active
6 | CC1=C(CO)C(=O)O[C@@H]([C@@H](C)[C@H]2CC[C@H]3[C@@H]4C[C@H]5O[C@]56[C@@H](O)[C@@H](OS(=O)(=O)O)CC(=O)[C@]6(C)[C@H]4CC[C@]23C)C1 | 2.2 µM | 14.8 µM | 21.7 µM | 17.9 µM | 21 µM |  |  |  |  |  |  | 
